In US20220153746A1, “NITROGEN OXIDE-DONATING PDE-5 AND/OR PDE-6 INHIBITOR COMPOUNDS, AND USES THEREOF” (ILDONG PHARMACEUTICAL CO., LTD., priority 2020, published 2022):
pIC50: −log10 of the molar value. Where two headings read alike, the source gives them in different places.

Tests used:
human PDE-6C = human PDE-6C (Homo sapiens, UniProt P51160); experiment: Human PDE-6C inhibition assay (fluorescence polarization, FAM-cGMP); format: biochemical; settings: for IC50: read-out: IC50 (μM) PDE6C
human PDE-5A1 = human PDE-5A1 (Homo sapiens, UniProt O76074); experiment: Human PDE-5A1 inhibition assay (fluorescence polarization, FAM-cGMP); format: biochemical; settings: for IC50: read-out: IC50 (μM) PDE5A1

human PDE-6C, sequence (P51160 whole entry): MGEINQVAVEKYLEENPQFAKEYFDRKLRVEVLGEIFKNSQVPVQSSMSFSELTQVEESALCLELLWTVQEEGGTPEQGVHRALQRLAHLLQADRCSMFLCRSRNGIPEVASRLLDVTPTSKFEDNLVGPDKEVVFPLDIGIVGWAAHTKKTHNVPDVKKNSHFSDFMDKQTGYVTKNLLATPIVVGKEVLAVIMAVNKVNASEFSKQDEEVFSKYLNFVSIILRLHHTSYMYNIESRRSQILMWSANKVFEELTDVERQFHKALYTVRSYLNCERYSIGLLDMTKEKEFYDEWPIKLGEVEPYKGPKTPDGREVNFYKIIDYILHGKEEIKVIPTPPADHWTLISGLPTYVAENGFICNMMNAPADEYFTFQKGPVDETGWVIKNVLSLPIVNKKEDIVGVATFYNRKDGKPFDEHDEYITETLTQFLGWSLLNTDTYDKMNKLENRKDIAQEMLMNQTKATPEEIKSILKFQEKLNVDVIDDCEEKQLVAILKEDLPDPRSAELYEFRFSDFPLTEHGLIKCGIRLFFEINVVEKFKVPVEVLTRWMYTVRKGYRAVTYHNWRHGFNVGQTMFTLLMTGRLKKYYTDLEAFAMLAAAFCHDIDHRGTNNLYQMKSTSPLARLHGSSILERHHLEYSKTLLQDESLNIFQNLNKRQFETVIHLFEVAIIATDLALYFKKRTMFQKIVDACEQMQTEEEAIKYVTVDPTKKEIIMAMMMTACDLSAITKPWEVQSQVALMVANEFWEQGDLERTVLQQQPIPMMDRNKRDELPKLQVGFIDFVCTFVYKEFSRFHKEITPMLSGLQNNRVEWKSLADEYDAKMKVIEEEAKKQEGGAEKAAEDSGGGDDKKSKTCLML

| SMILES | pIC50 (human PDE-6C) | pIC50 (human PDE-5A1) | IC50 (human PDE-6C) | IC50 (human PDE-5A1) |
| --- | --- | --- | --- | --- |
| CCCc1nn(C)c2c(=O)[nH]c(-c3cc(S(=O)(=O)N4CC(CCCOC(=O)CCC(CO[N+](=O)[O-])O[N+](=O)[O-])C4)ccc3OCC)nc12 (centres unmarked) [Compound 73, 3-(1-((4-ethoxy-3-(1-methyl-7-oxo-3-propyl-6,7-dihydro-1H-pyrazolo[4,3-d]pyrimidin-5-yl)phenyl)sulfonyl)azetidin-3-yl)propyl 4,5-bis(nitrooxy)pentanoate] | > 8.00 | > 8.00 |  |  |
| CCCc1nn(C)c2c(=O)[nH]c(-c3cc(S(=O)(=O)N4CC(N(CCCO)CCCO)C4)ccc3OCC)nc12 [Compound 30, 5-(5-((3-(bis(3-hydroxypropyl)amino)azetidin-1-yl)sulfonyl)-2-ethoxyphenyl)-1-methyl-3-propyl-1,6-dihydro-7H-pyrazolo[4,3-d]pyrimidin-7-one] |  |  | < 0.01 µM | < 0.01 µM |
| CCCc1nn(C)c2c(=O)[nH]c(-c3cc(S(=O)(=O)N4CC(N(C)CCO)C4)ccc3OCC)nc12 [Compound 12, 5-(2-ethoxy-5-((3-((2-hydroxyethyl)(methyl)amino)azetidin-1-yl)sulfonyl)phenyl)-1-methyl-3-propyl-1,6-dihydro-7H-pyrazolo[4,3-d]pyrimidin-7-one] |  |  | < 0.01 µM | < 0.01 µM |
| CCCc1nn(C)c2c(=O)[nH]c(-c3cc(S(=O)(=O)N4CC(CN)C4)ccc3OCC)nc12 [Compound 5, 5-(5-((3-(aminomethyl)azetidin-1-yl)sulfonyl)-2-ethoxyphenyl)-1-methyl-3-propyl-1,6-dihydro-7H-pyrazolo[4,3-d] pyrimidin-7-one] |  |  | 0.01 to 0.1 µM | > 0.1 µM |
| CCCc1nn(C)c2c(=O)[nH]c(-c3cc(S(=O)(=O)N4CC(NCCO)C4)ccc3OCC)nc12 [Compound 9, 5-(2-ethoxy-5-((3-((2-hydroxyethyl)amino)azetidin-1-yl)sulfonyl)phenyl)-1-methyl-3-propyl-1,6-dihydro-7H-pyrazolo[4,3-d]pyrimidin-7-one] |  |  | 0.01 to 0.1 µM | 0.01 to 0.1 µM |
| CCCc1nn(C)c2c(=O)[nH]c(-c3cc(S(=O)(=O)N4CC(CN5CC(CO[N+](=O)[O-])C5)C4)ccc3OCC)nc12 [Compound 37, (1-((1-((4-ethoxy-3-(1-methyl-7-oxo-3-propyl-6,7-dihydro-1H-pyrazolo[4,3-d]pyrimidin-5-yl)phenyl)sulfonyl)azetidin-3-yl)methyl)azetidin-3-yl)methyl nitrate] |  |  | 0.01 to 0.1 µM | 0.01 to 0.1 µM |
| CCCc1nn(C)c2c(=O)[nH]c(-c3cc(S(=O)(=O)N4CC(N(CCCO[N+](=O)[O-])CCCO[N+](=O)[O-])C4)ccc3OCC)nc12 [Compound 38, ((1-((4-ethoxy-3-(1-methyl-7-oxo-3-propyl-6,7-dihydro-1H-pyrazolo[4,3-d]pyrimidin-5-yl)phenyl)sulfonyl)azetidin-3-yl)azanediyl)bis(propane-3,1-diyl) dinitrate] | 7.00 to 8.00 | 7.00 to 8.00 |  |  |
| CCCc1nn(C)c2c(=O)[nH]c(-c3cc(S(=O)(=O)NC4CN(CCO)C4)ccc3OCC)nc12 [Compound 6, 4-ethoxy-N-(1-(2-hydroxyethyl)azetidin-3-yl)-3-(1-methyl-7-oxo-3-propyl-6,7-dihydro-1H-pyrazolo[4,3-d]pyrimidin-5-yl)benzenesulfonamide] |  |  | 0.01 to 0.1 µM | 0.01 to 0.1 µM |
| CCCc1nn(C)c2c(=O)[nH]c(-c3cc(S(=O)(=O)N4CC(CCCOC(=O)CCCCCO[N+](=O)[O-])C4)ccc3OCC)nc12 [Compound 65, 3-(1-((4-ethoxy-3-(1-methyl-7-oxo-3-propyl-6,7-dihydro-1H-pyrazolo[4,3-d]pyrimidin-5-yl)phenyl)sulfonyl)azetidin-3-yl)propyl 6-(nitrooxy)hexanoate] |  |  | < 0.01 µM | < 0.01 µM |
| CCCc1nn(C)c2c(=O)[nH]c(-c3cc(S(=O)(=O)N4CC(CCCOC(=O)CCCCC(CO[N+](=O)[O-])O[N+](=O)[O-])C4)ccc3OCC)nc12 (centres unmarked) [Compound 68, 3-(1-((4-ethoxy-3-(1-methyl-7-oxo-3-propyl-6,7-dihydro-1H-pyrazolo[4,3-d]pyrimidin-5-yl)phenyl)sulfonyl)azetidin-3-yl)propyl 6,7-bis(nitrooxy)heptanoate] | > 8.00 | 7.00 to 8.00 |  |  |
| CCCc1nn(C)c2c(=O)[nH]c(-c3cc(S(=O)(=O)N4CC(OCCCO)C4)ccc3OCC)nc12 [Compound 26, 5-(2-ethoxy-5-((3-(3-hydroxypropoxy)azetidin-1-yl)sulfonyl)phenyl)-1-methyl-3-propyl-1,6-dihydro-7H-pyrazolo[4,3-d]pyrimidin-7-one] |  |  | 0.01 to 0.1 µM | 0.01 to 0.1 µM |
| CCCc1nn(C)c2c(=O)[nH]c(-c3cc(S(=O)(=O)N4CC(NCCOC(=O)CCCCC(CO[N+](=O)[O-])O[N+](=O)[O-])C4)ccc3OCC)nc12 (centres unmarked) [Compound 69, 2-((1-((4-ethoxy-3-(1-methyl-7-oxo-3-propyl-6,7-dihydro-1H-pyrazolo[4,3-d]pyrimidin-5-yl)phenyl)sulfonyl)azetidin-3-yl)amino)ethyl 6,7-bis(nitrooxy)heptanoate] | > 8.00 | > 8.00 |  |  |
| CCCc1nn(C)c2c(=O)[nH]c(-c3cc(S(=O)(=O)N4CC(N5CC(CO)C5)C4)ccc3OCC)nc12 [Compound 32, 5-(2-ethoxy-5-((3-(hydroxymethyl)-[1,3′-biazetidin]-1′-yl)sulfonyl)phenyl)-1-methyl-3-propyl-1,6-dihydro-7H-pyrazolo[4,3-d]pyrimidin-7-one] |  |  | 0.01 to 0.1 µM | < 0.01 µM |
| CCCc1nn(C)c2c(=O)[nH]c(-c3cc(S(=O)(=O)N4CC(OCCCCO[N+](=O)[O-])C4)ccc3OCC)nc12 [Compound 36, 4-((1-((4-ethoxy-3-(1-methyl-7-oxo-3-propyl-6,7-dihydro-1H-pyrazolo[4,3-d]pyrimidin-5-yl)phenyl)sulfonyl)azetidin-3-yl)oxy)butyl nitrate] |  |  | 0.01 to 0.1 µM | 0.01 to 0.1 µM |
| CCCc1nn(C)c2c(=O)[nH]c(-c3cc(S(=O)(=O)NC4CN(CCO[N+](=O)[O-])C4)ccc3OCC)nc12 [Compound 19, 2-(3-((4-ethoxy-3-(1-methyl-7-oxo-3-propyl-6,7-dihydro-1H-pyrazolo[4,3-d]pyrimidin-5-yl)phenyl)sulfonamido)azetidin-1-yl)ethyl nitrate] |  |  | < 0.01 µM | < 0.01 µM |
| CCCc1nn(C)c2c(=O)[nH]c(-c3cc(S(=O)(=O)N4CC(CN5CC(CO)C5)C4)ccc3OCC)nc12 [Compound 28, 5-(2-ethoxy-5-((3-((3-(hydroxymethyl)azetidin-1-yl)methyl)azetidin-1-yl)sulfonyl)phenyl)-1-methyl-3-propyl-1,6-dihydro-7H-pyrazolo[4,3-d] pyrimidin-7-one] |  |  | 0.01 to 0.1 µM | 0.01 to 0.1 µM |
| CCCc1nn(C)c2c(=O)[nH]c(-c3cc(S(=O)(=O)N4CC(CCCOC(=O)CCCO[N+](=O)[O-])C4)ccc3OCC)nc12 [Compound 72, 3-(1-((4-ethoxy-3-(1-methyl-7-oxo-3-propyl-6,7-dihydro-1H-pyrazolo[4,3-d]pyrimidin-5-yl)phenyl)sulfonyl)azetidin-3-yl)propyl 4-(nitrooxy)butanoate] |  |  | < 0.01 µM | < 0.01 µM |
| CCCc1nn(C)c2c(=O)[nH]c(-c3cc(S(=O)(=O)N4CC(N5CC(O)C5)C4)ccc3OCC)nc12 [Compound 31, 5-(2-ethoxy-5-((3-hydroxy-[1,3′-biazetidin]-1′-yl)sulfonyl)phenyl)-1-methyl-3-propyl-1,6-dihydro-7H-pyrazolo [4,3-d]pyrimidin-7-one] |  |  | < 0.01 µM | 0.01 to 0.1 µM |
| CCCc1nn(C)c2c(=O)[nH]c(-c3cc(S(=O)(=O)N4CC(CO[N+](=O)[O-])C4)ccc3OCC)nc12 [Compound 16, (1-((4-ethoxy-3-(1-methyl-7-oxo-3-propyl-6,7-dihydro-1H-pyrazolo[4,3-d]pyrimidin-5-yl)phenyl)sulfonyl)azetidin-3-yl)methyl nitrate] |  |  | 0.01 to 0.1 µM | < 0.01 µM |
| CCCc1nn(C)c2c(=O)[nH]c(-c3cc(S(=O)(=O)N4CC(OCCO[N+](=O)[O-])C4)ccc3OCC)nc12 [Compound 34, 2-((1-((4-ethoxy-3-(1-methyl-7-oxo-3-propyl-6,7-dihydro-1H-pyrazolo[4,3-d]pyrimidin-5-yl)phenyl)sulfonyl)azetidin-3-yl)oxy)ethyl nitrate] |  |  | < 0.01 µM | 0.01 to 0.1 µM |
| CCCc1nn(C)c2c(=O)[nH]c(-c3cc(S(=O)(=O)N4CC(NCCCCO)C4)ccc3OCC)nc12 [Compound 11, 5-(2-ethoxy-5-((3-((4-hydroxybutyl)amino)azetidin-1-yl)sulfonyl)phenyl)-1-methyl-3-propyl-1,6-dihydro-7H-pyrazolo[4,3-d]pyrimidin-7-one] |  |  | 0.01 to 0.1 µM | 0.01 to 0.1 µM |
| CCCc1nn(C)c2c(=O)[nH]c(-c3cc(S(=O)(=O)N4CC(N(C)CCOC(=O)CCCCCO[N+](=O)[O-])C4)ccc3OCC)nc12 [Compound 67, 2-((1-((4-ethoxy-3-(1-methyl-7-oxo-3-propyl-6,7-dihydro-1H-pyrazolo[4,3-d]pyrimidin-5-yl)phenyl)sulfonyl)azetidin-3-yl)(methyl)amino)ethyl 6-(nitrooxy)hexanoate] |  |  | < 0.01 µM | < 0.01 µM |
| CCCc1nn(C)c2c(=O)[nH]c(-c3cc(S(=O)(=O)N4CC(N(C)CCCO[N+](=O)[O-])C4)ccc3OCC)nc12 [Compound 24, 3-((1-((4-ethoxy-3-(1-methyl-7-oxo-3-propyl-6,7-dihydro-1H-pyrazolo[4,3-d]pyrimidin-5-yl)phenyl)sulfonyl)azetidin-3-yl)(methyl)amino)propyl nitrate] |  |  | < 0.01 µM | 0.01 to 0.1 µM |
| CCCc1nn(C)c2c(=O)[nH]c(-c3cc(S(=O)(=O)N4CC(O[N+](=O)[O-])C4)ccc3OCC)nc12 [Compound 15, 1-((4-ethoxy-3-(1-methyl-7-oxo-3-propyl-6,7-dihydro-1H-pyrazolo[4,3-d]pyrimidin-5-yl)phenyl)sulfonyl) azetidin-3-yl nitrate] |  |  | 0.01 to 0.1 µM | 0.01 to 0.1 µM |
| CCCc1nn(C)c2c(=O)[nH]c(-c3cc(S(=O)(=O)N4CC(N5CC(O[N+](=O)[O-])C5)C4)ccc3OCC)nc12 [Compound 39, 1′-((4-ethoxy-3-(1-methyl-7-oxo-3-propyl-6,7-dihydro-1H-pyrazolo[4,3-d]pyrimidin-5-yl)phenyl)sulfonyl)-[1,3′-biazetidin]-3-yl nitrate] |  |  | < 0.01 µM | < 0.01 µM |
